Measurements: PMC7226045, “Ensartinib (X-396) Effectively Modulates Pharmacokinetic Resistance Mediated by ABCB1 and ABCG2 Drug Efflux Transporters and CYP3A4 Biotransformation Enzyme” (Cancers, 2020)

Experiments:
ABCC1 = biological target: T1, ABCC1 (Homo sapiens, UniProt P33527); experiment: calcein AM accumulation assay in MDCKII-ABCC1 cells; assay type: cell-based; conditions: read-out: IC50, inhibition of ABCC1-mediated calcein AM efflux
T1 construct: expressed in transfected cells; host or cells: MDCKII-ABCC1 (from Dr. Alfred Schinkel, The Netherlands Cancer Institute)
T1 sequence (P33527 whole entry): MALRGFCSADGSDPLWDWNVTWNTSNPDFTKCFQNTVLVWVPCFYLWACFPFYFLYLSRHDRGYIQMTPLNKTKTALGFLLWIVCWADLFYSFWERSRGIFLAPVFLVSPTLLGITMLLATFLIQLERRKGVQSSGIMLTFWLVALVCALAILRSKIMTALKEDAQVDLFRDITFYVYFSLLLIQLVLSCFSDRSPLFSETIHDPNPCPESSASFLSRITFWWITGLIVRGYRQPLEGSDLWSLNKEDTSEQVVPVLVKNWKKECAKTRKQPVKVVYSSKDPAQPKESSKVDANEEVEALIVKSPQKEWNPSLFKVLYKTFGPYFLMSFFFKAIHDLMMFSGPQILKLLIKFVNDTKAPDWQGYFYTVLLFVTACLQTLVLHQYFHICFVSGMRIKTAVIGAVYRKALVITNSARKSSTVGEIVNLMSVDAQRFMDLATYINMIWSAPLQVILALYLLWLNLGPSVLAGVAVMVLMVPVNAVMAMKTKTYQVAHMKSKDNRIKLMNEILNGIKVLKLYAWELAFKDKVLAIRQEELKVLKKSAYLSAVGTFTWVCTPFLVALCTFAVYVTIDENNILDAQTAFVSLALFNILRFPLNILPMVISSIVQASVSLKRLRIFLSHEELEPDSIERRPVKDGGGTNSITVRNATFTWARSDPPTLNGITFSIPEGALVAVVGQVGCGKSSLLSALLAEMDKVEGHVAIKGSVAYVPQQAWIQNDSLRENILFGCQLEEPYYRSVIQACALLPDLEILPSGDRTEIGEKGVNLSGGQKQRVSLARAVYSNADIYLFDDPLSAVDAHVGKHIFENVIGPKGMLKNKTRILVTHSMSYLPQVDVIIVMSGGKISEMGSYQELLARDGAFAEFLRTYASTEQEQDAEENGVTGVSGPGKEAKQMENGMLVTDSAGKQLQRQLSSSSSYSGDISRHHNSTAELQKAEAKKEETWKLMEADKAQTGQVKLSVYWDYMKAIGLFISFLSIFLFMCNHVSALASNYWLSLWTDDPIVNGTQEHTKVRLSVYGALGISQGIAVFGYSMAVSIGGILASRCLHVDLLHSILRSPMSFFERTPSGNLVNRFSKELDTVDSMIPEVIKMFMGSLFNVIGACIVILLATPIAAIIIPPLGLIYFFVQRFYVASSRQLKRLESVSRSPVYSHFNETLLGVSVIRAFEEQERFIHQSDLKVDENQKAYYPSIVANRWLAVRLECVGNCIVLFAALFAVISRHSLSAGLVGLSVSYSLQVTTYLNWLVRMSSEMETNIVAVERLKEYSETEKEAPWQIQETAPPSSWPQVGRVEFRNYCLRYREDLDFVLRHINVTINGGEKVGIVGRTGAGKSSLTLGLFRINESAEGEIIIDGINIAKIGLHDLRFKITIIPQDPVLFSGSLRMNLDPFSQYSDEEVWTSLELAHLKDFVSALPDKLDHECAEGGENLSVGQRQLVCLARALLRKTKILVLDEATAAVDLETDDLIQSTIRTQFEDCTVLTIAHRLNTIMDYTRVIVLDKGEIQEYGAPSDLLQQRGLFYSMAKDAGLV
Description: Cellular accumulation assay with hoechst 33342 and calcein AM was performed as described previously. Briefly, MDCKII-par, MDCKII-ABCB1, MDCKII-ABCG2, and MDCKII-ABCC1 cells were seeded at densities of 5.0 × 10^4, 5.0 × 10^4, 5.5 × 10^4, and 6.0 × 10^4 cells/well, respectively, on a transparent 96-well plate and grown to full confluence for 24 h under standard conditions. The cells were then washed twice with 1 × PBS, after which was added either a dilution of ensartinib in Opti-MEM (1, 5, 10, 25, or 50 µM) or a specific inhibitor to act as a positive control (1 µM LY335979, 1 µM Ko143, or 25 µM MK-571 for ABCB1, ABCG2, or ABCC1, respectively). Cells were pre-incubated for 10 min, then 8 µM hoechst 33342 (a model substrate for ABCB1 and ABCG2) or 2 µM calcein AM (ABCC1 substrate) diluted in Opti-MEM was quickly added to all wells other than those containing blank samples. The intracellular levels of the substrates were then determined at 1 min intervals for 30 min using a microplate reader (Infinite M200 Pro, Tecan, Männedorf, Switzerland). Fluorescence was monitored in bottom mode using excitation/emission wavelengths of 350/465 and 485/535 nm for hoechst 33342 and calcein AM, respectively.

CYP3A5 = biological target: T2, CYP3A5 (Homo sapiens, UniProt P20815); experiment: Vivid CYP screening kit, recombinant CYP3A5; assay type: biochemical; conditions: recombinant enzyme, 15 min incubation, absolute IC50; read-out: CYP3A5 inhibition IC50
T2 construct: purchased Thermo Fisher Scientific; host or cells: insect microsomal fractions
T2 sequence (P20815 whole entry): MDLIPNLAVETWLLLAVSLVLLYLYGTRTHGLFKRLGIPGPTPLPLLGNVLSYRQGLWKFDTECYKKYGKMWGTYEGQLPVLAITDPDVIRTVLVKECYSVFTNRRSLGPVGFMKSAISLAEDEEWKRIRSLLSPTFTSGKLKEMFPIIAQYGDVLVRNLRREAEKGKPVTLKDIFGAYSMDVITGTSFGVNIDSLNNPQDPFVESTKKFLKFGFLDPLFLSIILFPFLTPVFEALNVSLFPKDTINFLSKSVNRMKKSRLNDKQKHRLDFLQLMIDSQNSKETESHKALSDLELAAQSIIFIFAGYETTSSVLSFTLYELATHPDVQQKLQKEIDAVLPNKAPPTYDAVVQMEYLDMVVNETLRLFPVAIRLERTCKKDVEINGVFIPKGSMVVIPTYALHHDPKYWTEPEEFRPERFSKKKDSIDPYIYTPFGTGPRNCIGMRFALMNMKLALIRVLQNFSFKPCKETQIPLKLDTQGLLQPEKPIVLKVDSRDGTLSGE
Description: (§1) CYP inhibitory assay was performed as described previously. Experiments were performed with commercial Vivid CYP screening kits containing insect microsomal fractions enriched with a specific human CYP isoform, human CYP reductase, and in some cases, human cytochrome b5. The potential inhibitory activity of ensartinib toward CYP1A2, CYP2B6, CYP2C8, CYP2C9, CYP2C19, CYP2D6, CYP3A4, and CYP3A5 (i.e., all CYP isoforms that drug regulatory authorities recommend for testing of inhibition by new molecular entities) was then examined. Experiments were performed using a kinetic mode in black 96-well plates according to the manufacturer´s instructions. Briefly, 5-point serial dilutions of ensartinib or the model inhibitor recommended by the manufacturer in buffer were transferred into the wells, then a master mix consisting of a CYP isoenzyme with an NADPH regeneration system in buffer was added. After a 10 min pre-incubation, the reaction was initiated by adding a mixture of NADP^+ and the appropriate Vivid substrate, after which fluorescence was measured at 1 min intervals for 60 min using an Infinite M200 Pro microplate reader (Tecan, Männedorf, Switzerland). The enzyme concentration and incubation interval used for data evaluation (15 min) placed the systems within the linear regions of the appropriate reaction velocity curves. […]

ABCB1 = biological target: T3, ABCB1 (Homo sapiens, UniProt P08183); experiment: daunorubicin accumulation assay (flow cytometry) in MDCKII-ABCB1 cells; assay type: cell-based; conditions: 2 µM daunorubicin, 1 h, read-out: IC50, inhibition of ABCB1 (daunorubicin accumulation)
T3 construct: expressed in transfected cells; host or cells: MDCKII-ABCB1 (from Dr. Alfred Schinkel, The Netherlands Cancer Institute)
T3 sequence (P08183 whole entry): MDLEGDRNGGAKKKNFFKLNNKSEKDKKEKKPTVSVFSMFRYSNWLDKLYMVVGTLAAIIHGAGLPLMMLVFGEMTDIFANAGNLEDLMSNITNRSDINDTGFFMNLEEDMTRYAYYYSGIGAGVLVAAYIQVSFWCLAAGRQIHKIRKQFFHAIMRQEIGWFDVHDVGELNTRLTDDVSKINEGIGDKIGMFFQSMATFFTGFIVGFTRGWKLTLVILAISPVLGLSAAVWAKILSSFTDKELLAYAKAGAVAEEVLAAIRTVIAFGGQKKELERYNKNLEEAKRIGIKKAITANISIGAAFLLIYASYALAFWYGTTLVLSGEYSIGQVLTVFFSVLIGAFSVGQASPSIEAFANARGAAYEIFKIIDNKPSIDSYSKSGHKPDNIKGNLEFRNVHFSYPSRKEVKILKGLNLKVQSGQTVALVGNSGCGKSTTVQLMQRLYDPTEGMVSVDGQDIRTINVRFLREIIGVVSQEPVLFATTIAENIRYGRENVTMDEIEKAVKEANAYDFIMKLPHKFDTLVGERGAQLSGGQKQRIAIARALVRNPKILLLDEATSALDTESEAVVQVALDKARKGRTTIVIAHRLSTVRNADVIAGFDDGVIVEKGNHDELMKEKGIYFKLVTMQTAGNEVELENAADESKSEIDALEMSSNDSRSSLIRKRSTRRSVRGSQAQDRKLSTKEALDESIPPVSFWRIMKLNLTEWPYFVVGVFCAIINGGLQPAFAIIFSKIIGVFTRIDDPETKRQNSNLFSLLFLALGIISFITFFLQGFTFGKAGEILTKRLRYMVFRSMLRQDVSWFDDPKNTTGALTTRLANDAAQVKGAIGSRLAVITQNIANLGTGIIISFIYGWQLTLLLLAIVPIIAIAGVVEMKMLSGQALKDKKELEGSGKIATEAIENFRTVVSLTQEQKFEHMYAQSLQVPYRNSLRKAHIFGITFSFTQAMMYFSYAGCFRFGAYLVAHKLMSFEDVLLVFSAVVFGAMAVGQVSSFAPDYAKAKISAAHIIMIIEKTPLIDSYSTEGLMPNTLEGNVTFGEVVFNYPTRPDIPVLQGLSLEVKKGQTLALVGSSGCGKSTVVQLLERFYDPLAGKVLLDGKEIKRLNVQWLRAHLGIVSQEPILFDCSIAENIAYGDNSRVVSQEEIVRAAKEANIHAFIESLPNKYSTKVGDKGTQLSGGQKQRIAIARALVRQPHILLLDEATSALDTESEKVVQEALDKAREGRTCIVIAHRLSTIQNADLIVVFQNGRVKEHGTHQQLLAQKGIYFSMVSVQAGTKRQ
Description: The flow-cytometric inhibitory assay with daunorubicin and mitoxantrone was performed with minor modifications as described previously. MDCKII-par, MDCKII-ABCB1, MDCKII-ABCG2, and MDCKII-ABCC1 cell lines were seeded at densities of 22.0 × 10^4, 15.0 × 10^4, 25.0 × 10^4, and 22.0 × 10^4 cells/well, respectively, on a 12-well plate and then incubated for 24 h to reach approximately 70–80% confluence. Further steps including cell washing, the preparation of drug/model inhibitor dilutions, and their addition to cells were performed as described above. After the 10 min pre-incubation period, 2 µM daunorubicin (a substrate of ABCB1/ABCC1) or 1 µM mitoxantrone (ABCG2 substrate) were promptly added to all wells other than those containing background samples, then the plate was incubated for 1 h under standard conditions. The plates were subsequently placed on ice, the cells were washed twice with ice-cold 1× PBS, and 10× trypsin without phenol red was added. After complete trypsinization, the cells were vigorously resuspended in ice-cold 1× PBS containing 2% FBS. Samples were then transferred into test-tubes and kept on ice until their fluorescence could be measured using a flow cytometer (BD FACSCanto II, Allschwil, Switzerland). The excitation/emission wavelengths for daunorubicin and mitoxantrone were 490/565 and 640/670 nm, respectively.

[1] = MTT proliferation / drug combination assay, MDCKII-ABCG2; assay type: cell-based, canine; conditions: dog, MDCKII-ABCG2 cells, 48 h, MTT, read-out: IC50, sensitivity to ensartinib
Description: (§2) MTT proliferation assay was performed as described previously.

MDCKII-ABCG2 cells = experiment: as above; assay type: cell-based, canine
Description: as §2

CYP2B6 = biological target: T4, CYP2B6 (Homo sapiens, UniProt P20813); experiment: Vivid CYP screening kit, recombinant CYP2B6; assay type: biochemical; conditions: recombinant enzyme
T4 construct: purchased Thermo Fisher Scientific; host or cells: insect microsomal fractions
T4 sequence (P20813 whole entry): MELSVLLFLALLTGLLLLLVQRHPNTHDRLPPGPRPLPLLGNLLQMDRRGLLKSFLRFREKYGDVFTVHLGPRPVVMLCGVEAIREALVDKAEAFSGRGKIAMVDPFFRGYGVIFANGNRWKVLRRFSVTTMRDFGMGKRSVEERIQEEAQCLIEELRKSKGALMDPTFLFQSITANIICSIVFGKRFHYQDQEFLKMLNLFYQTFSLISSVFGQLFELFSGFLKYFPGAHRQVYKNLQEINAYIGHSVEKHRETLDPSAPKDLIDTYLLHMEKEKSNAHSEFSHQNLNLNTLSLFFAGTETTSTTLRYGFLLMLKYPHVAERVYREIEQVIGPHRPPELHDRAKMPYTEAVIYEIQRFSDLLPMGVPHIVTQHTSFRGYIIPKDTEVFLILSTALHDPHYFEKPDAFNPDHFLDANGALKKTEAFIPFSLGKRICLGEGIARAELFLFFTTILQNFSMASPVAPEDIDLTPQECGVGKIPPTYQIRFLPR
Description: as §1

MDCKII-ABCC1 cells = experiment: MTT proliferation assay, MDCKII-ABCC1; assay type: cell-based, canine; conditions: Canis lupus familiaris, 48 h, read-out: IC50, sensitivity to ensartinib
Description: as §2

HL60-parent cells = experiment: XTT proliferation / drug combination assay, HL60-parent; assay type: cell-based, human
Description: Briefly, HL60-par, HL60-ABCB1, HL60-ABCG2, and HL60-ABCC1 cells were seeded at 2 × 10^4 cells/well in 96-well culture plates. Immediately after seeding, dilutions of the tested drugs or drug combinations were added to the cells. The plates were then incubated under standard conditions (37 °C, 5% CO2) for 48 h, after which XTT solution in PBS (1 mg/mL) and phenazine methosulfate (7.50 µg/mL) were added to the cells and the plates were incubated for another 5 h. Finally, the cells’ absorbance was measured at 450 nm using a microplate reader (Infinite M200, Tecan, Salzburg, Austria). This method was used to assess the effect of ABC transporters on sensitivity to ensartinib and in drug combination assays.
The parent MDCKII and HL60 cells and their ABCB1-, ABCG2-, and ABCC1-overexpressing counterparts were seeded at the densities specified above onto 96-well culture plates and cultured for 24 h. The medium was subsequently replaced with serial dilutions of ensartinib alone or with various concentrations of a model MDR-susceptible cytostatic agent (daunorubicin or mitoxantrone) with or without 10 µM ensartinib. After 48 h incubation, the cells’ viability was determined as described above. In addition to performing IC50-shift analyses, the viability measurements were converted to FA (fraction of cells affected) values and the effects of drug combinations were quantified using the Chou-Talalay combination index (CI) method as implemented in CompuSyn 3.0.1 (ComboSyn Inc., Paramus, NJ, USA). The effects of concomitantly administered drugs were classified as synergistic (CI < 0.9), additive (0.9 < CI < 1.1), or antagonistic (CI > 1.1) based on the computed CI values [57].

HepG2-EV cells = experiment: Docetaxel combination assay (MTT), HepG2-EV; assay type: cell-based, human; conditions: 1 µM docetaxel, <0% antagonism, =0% additivity, >0% synergism
Description: as §2
Cell viability was measured after a 48 h incubation using the MTT method as described above. […] Sensitization effects of < 0%, 0%, and >0% indicate antagonism, additivity, and synergism, respectively.

Structure (SMILES): C[C@@H]1CN(C(=O)c2ccc(NC(=O)c3cc(O[C@H](C)c4c(Cl)ccc(F)c4Cl)c(N)nn3)cc2)C[C@H](C)N1 [ensartinib, Ensartinib]
- IC50 (ABCC1): > 50 µM
- IC50 (CYP3A5): 19.1 µM
- IC50 (ABCB1): 4.75 µM
- IC50 at 48 h [1]: 23.3 µM
- combination effect (Chou-Talalay combination index) (MDCKII-ABCG2 cells; 10 µM ensartinib with mitoxantrone): synergistic (synergistic (CI < 0.9))
- RR (reversal ratio) (MDCKII-ABCG2 cells; mitoxantrone, IC50 single drug / IC50 combined with 10 µM ensartinib): 6.16
- inhibitory effect on CYP2B6 (in words) (CYP2B6): no appreciable inhibitory effect
- IC50 (CYP2B6; 15 min incubation, absolute IC50, read-out: CYP2B6 inhibition IC50): > 50 µM
- IC50 (MDCKII-ABCC1 cells): 21.9 µM
- combination effect (Chou-Talalay combination index) (HL60-parent cells; HL60 parental, 10 µM ensartinib with daunorubicin or mitoxantrone, whole FA range): antagonistic or additive
- IC50 (HL60-parent cells; Homo sapiens, HL60-parent, 48 h, XTT, read-out: IC50, sensitivity to ensartinib): 31.9 µM
- sensitization effect of combination with docetaxel (HepG2-EV cells): antagonistic
